Read-outs that look alike come from different tables or passages of the source.
Experiment: Phase I study CXR1002-001: plasma pharmacokinetics (LC-MS/MS)
Assay type: in vivo, human
Conditions: human, plasma, oral; for concentration at 843 h / concentration at 844 h / concentration at 864 h / concentration at 2 h / concentration at 3 h / concentration at 4 h / concentration at 24 h / concentration at 168 h / concentration at 170 h / concentration at 171 h / concentration at 172 h / concentration at 192 h / concentration at 336 h / concentration at 338 h / concentration at 339 h / concentration at 340 h / concentration at 360 h / concentration at 506 h / concentration at 507 h / concentration at 508 h / concentration at 528 h / concentration at 672 h / concentration at 674 h / concentration at 675 h / concentration at 676 h / concentration at 696 h / concentration at 840 h / concentration at 842 h / concentration at 504 h: read-out: Concentration; for concentration at 864 h: 864 hr (Day 37); for concentration at 24 h: 24 hr (Day 2); for concentration at 168 h: 168 hr (Day 8); for concentration at 192 h: 192 hr (Day 9); for concentration at 336 h: 336 hr (Day 15); for concentration at 360 h: 360 hr (Day 16); for concentration at 528 h: 528 hr (Day 23); for concentration at 672 h: 672 hr (Day 29); for concentration at 696 h: 696 hr (Day 30); for concentration at 840 h: 840 hr (Day 36); for concentration at 504 h: 504 hr (Day 22)
Excerpt: PK samples, PD (fasting) samples, blood glucose, and blood triglyceride samples, were taken over a 6-week period.
Dose limiting toxicity (DLT) will be based on the toxicity assessments over the first 3-week period of the repeat dosing schedule. PK samples (single blood sample) were taken on the following basis: • Every 6 weeks during the repeat dosing phase • If dosing is interrupted or stopped, samples will be taken at intervals according to patient convenience • PK sampling for safety evaluation may take place at any time, as clinically indicated
Plasma samples were collected after the single 50 mg dose at the following timepoints: Pre-dose, and then 0.25, 0.5, 0.75, 1, 1.5, 2, 3, 4, 6, 24, 48, and 72 hours after administration and then once weekly at weeks 2, 3, 4, 5, and 6 (days 8, 15, 22, 29, and 36). For patients treated with the weekly repeat dose, plasma samples were collected at the following timepoints: Pre-dose and then 2, 3, 4 and 24 hours after administration for a total of 6 weeks. Thereafter a single sample was collected every 6 weeks for monitoring of exposure during long term treatment. Plasma samples were processed at site and stored at −80° C. prior to batch shipment to the analytical laboratory.

[1] = 200 mg, Patient 009 Dose 200 mg
[2] = 200 mg, Patient 010 Dose 200 mg
[3] = 300 mg, Patient 011 Dose 300 mg
[4] = 300 mg, Patient 012 Dose 300 mg
[5] = 300 mg, Patient 013 Dose 300 mg
[6] = 300 mg, Patient 014 Dose 300 mg

O=C(O)C(F)(F)C(F)(F)C(F)(F)C(F)(F)C(F)(F)C(F)(F)C(F)(F)F [CXR1002]
concentration at 843 h [1]: 373 µM | concentration at 844 h [1]: 329 µM | concentration at 864 h [1]: 346 µM | concentration at 92 day (200 mg, Patient 009 Dose 200 mg, Day 92): 456 µM | concentration at 19 week (200 mg, Patient 009 Dose 200 mg, Week 19): 618 µM | concentration at 25 week (200 mg, Patient 009 Dose 200 mg, Week 25): 501 µM | concentration at 32 week (200 mg, Patient 009 Dose 200 mg, Week 32): 540 µM | concentration at 0 h (200 mg, Patient 010 Dose 200 mg, 0 hr): 0 nM | concentration at 2 h [2]: 21.1 µM | concentration at 3 h [2]: 30.4 µM | concentration at 4 h [2]: 33.6 µM | concentration at 24 h [2]: 58.6 µM | concentration at 168 h [2]: 51 µM | concentration at 170 h [2]: 81.7 µM | concentration at 171 h [2]: 81.4 µM | concentration at 172 h [2]: 119 µM | concentration at 192 h [2]: 101 µM | concentration at 336 h [2]: 98.8 µM | concentration at 338 h [2]: 118 µM | concentration at 339 h [2]: 103 µM | concentration at 340 h [2]: 66.7 µM | concentration at 360 h [2]: 175 µM | concentration at 506 h [2]: 207 µM | concentration at 507 h [2]: 276 µM | concentration at 508 h [2]: 187 µM | concentration at 528 h [2]: 191 µM | concentration at 672 h [2]: 192 µM | concentration at 674 h [2]: 193 µM | concentration at 675 h [2]: 237 µM | concentration at 676 h [2]: 231 µM | concentration at 696 h [2]: 256 µM | concentration at 840 h [2]: 243 µM | concentration at 842 h [2]: 188 µM | concentration at 843 h [2]: 232 µM | concentration at 844 h [2]: 223 µM | concentration at 864 h [2]: 221 µM | concentration at 2 h [3]: 101 µM | concentration at 3 h [3]: 107 µM | concentration at 4 h [3]: 112 µM | concentration at 24 h [3]: 95.9 µM | concentration at 168 h [3]: 57.9 µM | concentration at 170 h [3]: 112 µM | concentration at 171 h [3]: 122 µM | concentration at 172 h [3]: 138 µM | concentration at 192 h [3]: 178 µM | concentration at 336 h [3]: 131 µM | concentration at 338 h [3]: 160 µM | concentration at 339 h [3]: 160 µM | concentration at 340 h [3]: 147 µM | concentration at 360 h [3]: 237 µM | concentration at 504 h [3]: 145 µM | concentration at 506 h [3]: 204 µM | concentration at 507 h [3]: 288 µM | concentration at 508 h [3]: 244 µM | concentration at 672 h [3]: 255 µM | concentration at 674 h [3]: 291 µM | concentration at 675 h [3]: 304 µM | concentration at 676 h [3]: 243 µM | concentration at 696 h [3]: 326 µM | concentration at 840 h [3]: 270 µM | concentration at 842 h [3]: 384 µM | concentration at 843 h [3]: 350 µM | concentration at 844 h [3]: 282 µM | concentration at 864 h [3]: 387 µM | concentration at 12 week (300 mg, Patient 011 Dose 300 mg, Week 12): 574 µM | concentration at 2 h [4]: 91.4 µM | concentration at 3 h [4]: 93.5 µM | concentration at 4 h [4]: 123 µM | concentration at 24 h [4]: 74 µM | concentration at 168 h [4]: 64.8 µM | concentration at 171 h [4]: 148 µM | concentration at 172 h [4]: 126 µM | concentration at 192 h [4]: 152 µM | concentration at 336 h [4]: 141 µM | concentration at 339 h [4]: 196 µM | concentration at 340 h [4]: 213 µM | concentration at 360 h [4]: 218 µM | concentration at 504 h [4]: 181 µM | concentration at 506 h [4]: 278 µM | concentration at 507 h [4]: 261 µM | concentration at 508 h [4]: 221 µM | concentration at 528 h [4]: 263 µM | concentration at 672 h [4]: 303 µM | concentration at 674 h [4]: 340 µM | concentration at 675 h [4]: 373 µM | concentration at 676 h [4]: 292 µM | concentration at 696 h [4]: 334 µM | concentration at 2 h [5]: 82.7 µM | concentration at 3 h [5]: 76 µM | concentration at 4 h [5]: 85.3 µM | concentration at 24 h [5]: 79.6 µM | concentration at 2 h [6]: 131 µM | concentration at 3 h [6]: 121 µM | concentration at 4 h [6]: 100 µM | concentration at 24 h [6]: 102 µM | concentration at 168 h [6]: 79.6 µM | concentration at 170 h [6]: 154 µM | concentration at 171 h [6]: 178 µM | concentration at 172 h [6]: 180 µM | concentration at 192 h [6]: 178 µM | concentration at 336 h [6]: 173 µM | concentration at 338 h [6]: 297 µM | concentration at 339 h [6]: 270 µM | concentration at 340 h [6]: 261 µM | concentration at 504 h [6]: 288 µM | concentration at 506 h [6]: 336 µM | concentration at 507 h [6]: 374 µM | concentration at 528 h [6]: 420 µM | concentration at 672 h [6]: 355 µM | concentration at 674 h [6]: 389 µM | concentration at 675 h [6]: 400 µM | concentration at 676 h [6]: 411 µM | concentration at 696 h [6]: 478 µM | concentration at 840 h [6]: 426 µM | concentration at 842 h [6]: 506 µM
